Reference: patent US11911353B2, “Fatty acid synthase inhibitor and application thereof” (Jiangnan University, priority 2019, dated 2024)

How the values were obtained:
[1] = molecular target: T1, fatty acid synthase (FASN) in colon cancer cells HCT116 (Homo sapiens, UniProt P49327); experiment: FASN enzyme activity detection in treated HCT116 cells (NADPH absorbance at 340 nm); format: cell-based; settings: HCT-116, 4 hours of incubation, read-out: FASN enzyme activity inhibition rate (%)
T1 construct: endogenous in cells; host or cells: HCT116 colon cancer cells
T1 sequence (P49327 whole entry): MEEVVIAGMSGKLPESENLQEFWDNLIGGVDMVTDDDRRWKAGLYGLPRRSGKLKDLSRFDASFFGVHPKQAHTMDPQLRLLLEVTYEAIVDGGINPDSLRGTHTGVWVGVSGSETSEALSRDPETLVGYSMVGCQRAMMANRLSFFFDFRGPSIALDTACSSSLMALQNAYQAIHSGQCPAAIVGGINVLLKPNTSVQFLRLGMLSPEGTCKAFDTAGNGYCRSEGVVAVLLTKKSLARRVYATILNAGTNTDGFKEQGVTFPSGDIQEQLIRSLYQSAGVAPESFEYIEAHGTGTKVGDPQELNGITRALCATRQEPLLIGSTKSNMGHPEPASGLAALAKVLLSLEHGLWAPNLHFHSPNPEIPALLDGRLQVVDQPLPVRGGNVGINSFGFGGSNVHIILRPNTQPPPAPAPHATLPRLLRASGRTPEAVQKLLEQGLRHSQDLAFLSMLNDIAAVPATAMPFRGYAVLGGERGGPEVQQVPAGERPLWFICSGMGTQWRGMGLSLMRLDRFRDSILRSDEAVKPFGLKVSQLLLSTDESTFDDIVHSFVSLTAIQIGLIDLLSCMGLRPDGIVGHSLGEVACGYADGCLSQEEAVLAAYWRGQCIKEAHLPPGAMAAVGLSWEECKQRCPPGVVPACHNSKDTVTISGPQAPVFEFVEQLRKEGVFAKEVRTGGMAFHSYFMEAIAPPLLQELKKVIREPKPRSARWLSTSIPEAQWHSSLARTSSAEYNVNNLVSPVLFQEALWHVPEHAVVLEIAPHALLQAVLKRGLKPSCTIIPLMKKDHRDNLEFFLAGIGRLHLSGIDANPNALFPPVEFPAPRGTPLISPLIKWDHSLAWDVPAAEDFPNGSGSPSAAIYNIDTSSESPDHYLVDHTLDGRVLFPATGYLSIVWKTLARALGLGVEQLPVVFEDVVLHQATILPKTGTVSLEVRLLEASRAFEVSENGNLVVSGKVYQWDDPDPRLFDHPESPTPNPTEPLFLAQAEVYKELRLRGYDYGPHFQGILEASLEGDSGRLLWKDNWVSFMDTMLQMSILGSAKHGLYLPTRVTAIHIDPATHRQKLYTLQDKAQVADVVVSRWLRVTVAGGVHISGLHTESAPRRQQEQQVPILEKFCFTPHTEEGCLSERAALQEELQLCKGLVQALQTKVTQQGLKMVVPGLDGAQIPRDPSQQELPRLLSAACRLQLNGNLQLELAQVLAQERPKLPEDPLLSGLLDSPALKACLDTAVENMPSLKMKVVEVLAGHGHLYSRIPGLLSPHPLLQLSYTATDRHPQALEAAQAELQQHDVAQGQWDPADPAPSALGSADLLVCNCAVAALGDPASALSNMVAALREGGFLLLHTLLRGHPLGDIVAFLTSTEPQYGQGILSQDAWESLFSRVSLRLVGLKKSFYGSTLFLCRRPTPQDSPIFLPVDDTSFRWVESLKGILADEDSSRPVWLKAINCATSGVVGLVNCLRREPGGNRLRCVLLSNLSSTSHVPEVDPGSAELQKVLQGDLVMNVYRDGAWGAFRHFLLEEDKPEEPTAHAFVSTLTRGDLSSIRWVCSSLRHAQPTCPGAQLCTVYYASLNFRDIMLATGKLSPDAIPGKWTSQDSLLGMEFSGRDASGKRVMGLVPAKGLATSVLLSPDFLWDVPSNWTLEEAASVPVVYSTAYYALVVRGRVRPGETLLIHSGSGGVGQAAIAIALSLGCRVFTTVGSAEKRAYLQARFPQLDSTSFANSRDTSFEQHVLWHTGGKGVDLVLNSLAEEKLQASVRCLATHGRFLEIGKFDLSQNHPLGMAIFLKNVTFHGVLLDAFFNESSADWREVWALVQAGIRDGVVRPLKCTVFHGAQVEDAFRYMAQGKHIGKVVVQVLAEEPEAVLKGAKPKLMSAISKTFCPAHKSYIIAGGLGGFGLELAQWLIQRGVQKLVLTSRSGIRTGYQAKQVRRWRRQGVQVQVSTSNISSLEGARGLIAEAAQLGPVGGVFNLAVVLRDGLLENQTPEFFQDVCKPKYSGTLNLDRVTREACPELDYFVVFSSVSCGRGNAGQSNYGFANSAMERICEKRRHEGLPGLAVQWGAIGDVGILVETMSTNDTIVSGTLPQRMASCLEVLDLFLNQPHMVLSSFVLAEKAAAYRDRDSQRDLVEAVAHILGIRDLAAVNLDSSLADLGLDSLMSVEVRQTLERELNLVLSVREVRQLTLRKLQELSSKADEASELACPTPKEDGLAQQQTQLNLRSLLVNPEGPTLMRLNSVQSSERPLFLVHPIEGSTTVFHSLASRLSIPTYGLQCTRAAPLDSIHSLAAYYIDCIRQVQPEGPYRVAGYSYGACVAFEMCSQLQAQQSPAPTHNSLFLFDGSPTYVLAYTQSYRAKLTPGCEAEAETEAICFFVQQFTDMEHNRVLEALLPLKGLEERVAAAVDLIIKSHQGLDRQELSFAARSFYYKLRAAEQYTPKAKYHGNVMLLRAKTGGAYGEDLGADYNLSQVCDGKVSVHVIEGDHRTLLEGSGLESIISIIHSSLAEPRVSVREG

[2] = system: prostate cancer cells PC-3; experiment: MTT tumor proliferation IC50, PC-3; format: cell-based; settings: 72 hours of incubation
Excerpt: (§1) IC50 (half maximal inhibitory concentration) refers to the half inhibitory concentration of a measured antagonist. It can indicate that a certain concentration of a certain drug or substance (inhibitor) induces tumor cell apoptosis by 50%, and this concentration is referred to as 50% inhibitory concentration, namely, the corresponding concentration when the ratio of apoptotic cells to the total number of cells is equal to 50%. The IC50 value can be used to measure the ability of a drug to induce apoptosis, that is, the higher the inducing ability, the lower the value, which also can indicate the tolerance degree of a certain cell to a drug on the contrary. • (1) Cells in the logarithmic phase are collected, the concentration of a cell suspension is adjusted, it is appropriate to place 100 μl cells in each well of a 96-well plate, the cells are inoculated into the plate to adjust the density of to-be-detected cells to be 1000-10000 cells/well, and edge wells are filled with sterile PBS. • (2) The cells are incubated under 5% CO2 at 37° C., an original culture medium is discarded after complete cell adherence, 200 μl of 1 wt % FBS culture medium containing 0.01 μM, 0.1 μM, 1 μM, 5 μM and 10 μM compound I-1 or cerulenin is added into each well, and there are 6 wells run in duplicate. An equal volume of DMSO is added as a negative control. • (3) After 72 hours of incubation, the cells are photographed for state recording, an original culture medium is discarded, and 100 μl of serum-free culture medium containing 0.5 mg/ml MTT (3-(4,5-dimethylthiazole-2)-2,5-diphenyltetrazolium bromide, trade name thiazolyl blue) is added into each well. • (4) After 2-4 hours of incubation, an original culture medium is discarded, and 150 μl of dimethyl sulfoxide (DMSO) is added into each well and shaken at 300 rpm for 10 minutes to fully dissolve purple crystals. • (5) The absorbance of each well at OD570 nm is measured by an enzyme-linked immunodetection instrument, the absorbance at OD630 nm is used as a reference, dual-wavelength measurement is carried out, and survival rate results are calculated according to the following formula: Cell survival rate=(OD570−OD630)/(OD570 negative control−OD630 negative control);
(§2) wherein, OD570: OD570 value of each treatment group; OD630: OD630 value of each treatment group; OD570 control: OD570 value of the negative control group; OD630 control: OD630 value of the negative control group. • (6) The survival rate results are processed with graphpad 6.0 software according to the concentration gradient, the analysis mode is log (inhibitor) vs. Nonlinear regression (curve fit), and the calculated IC50 value is expressed as x+/−SD.
(§3) The FASN enzyme activity measurement method shown in Experimental Example 18 is used to detect the effects of different substances on FASN enzyme activity. The method shown in Experimental Example 19 is used to detect the effects of different substances on the proliferation of tumor cells, cerulenin is used as a control, and the inhibition rates (%) of different substances on FASN enzyme activity and inhibition rates (IC50 nM) on tumor proliferation are calculated.

[3] = system: colon cancer cells HCT116; experiment: MTT tumor proliferation IC50, HCT116; format: cell-based; settings: Homo sapiens, HCT-116, 72 hours of incubation
Excerpt: as §1, §2, §3

[4] = system: prostate cancer cells PC3; experiment: Cell division of PC3 cells, CFSE flow cytometry (FIG. 4); format: cell-based; settings: 10 μM, 24 hours, versus cells without compound
Excerpt: […]

[5] = system: transplanted tumors PC3; experiment: Growth of transplanted tumors PC3 in nude mice (FIG. 8); format: in vivo; settings: 5 mg/kg intraperitoneally every 2 days, four weeks
Excerpt: […]

inhibition at 20 µM [1]: 58.6% | IC50 [2]: 9 nM | IC50 [3]: 13 nM
SMILES: O=C(CCCC(=O)Nc1ccc(Br)cc1)N/N=C/c1cc(Br)ccc1O [Compound I-1]
split peak number (cell division) [4]: significantly reduced | HE staining of transplanted tumor tissue ([5]; FIG. 8B): dark dotted area is significantly reduced | tumor mass of mice ([5]; PC3 transplanted tumors): significantly lower than that of the control group
